Experimental data reported in patent publication US11491228B2, “Hydrogels and uses thereof” (Massachusetts Institute of Technology, priority 2018, dated 2022).

Test: Release of taxanes from PEG alkynoate-TREN (beta-aminoacrylate) gel into PBS, HPLC
Assay type: physicochemical
Settings: 37° C.
Procedure: Samples were stored at +4° C. […] The wavelength of detection was 227 nm. Phases were A: water, B: MeCN.

With `CC(=O)O[C@@]12CO[C@@H]1C[C@H](O)[C@@]1(C)C(=O)[C@H](O)C3=C(C)[C@@H](OC(=O)[C@H](O)[C@@H](NC(=O)OC(C)(C)C)c4ccccc4)C[C@@](O)([C@@H](OC(=O)c4ccccc4)[C@H]21)C3(C)C` [Docetaxel, docetaxel] the “Concentrations of taxane following release from PEG alkynoate-TREN gels” value (“Concentrations” below) (1 h, average) was 39.29 ng/mL, the “Concentrations” value (1 h, replicate A) was -152.3 ng/mL and the “Concentrations” value (1 h, replicate B) was 422.4 ng/mL. For the same compound, the “Concentrations” value (1 h, replicate C) was -152.3 ng/mL, the “Concentrations” value (2 h, average) was 201.4 ng/mL and the “Concentrations” value (2 h, replicate A) was -152.3 ng/mL. The “Concentrations” value (2 h, replicate B) was 555 ng/mL, the “Concentrations” value (2 h, replicate C) was 201.4 ng/mL and the “Concentrations” value (5 h, average) was 363.5 ng/mL. The “Concentrations” value (5 h, replicate A) was 1041 ng/mL, the “Concentrations” value (5 h, replicate B) was 201.4 ng/mL and the “Concentrations” value (5 h, replicate C) was -152.3 ng/mL. For the same compound, the “Concentrations” value (20 h, average) was 267.7 ng/mL, the “Concentrations” value (20 h, replicate A) was 643.4 ng/mL and the “Concentrations” value (20 h, replicate B) was 311.9 ng/mL. The “Concentrations” value (20 h, replicate C) was -152.3 ng/mL, the “Concentrations” value (48 h, average) was 1127.9 ng/mL and the “Concentrations” value (48 h, replicate A) was 984.7 ng/mL. The “Concentrations” value (48 h, replicate B) was 1003 ng/mL, the “Concentrations” value (48 h, replicate C) was 1396 ng/mL and the “% released from PEG alkynoate-TREN gels” value (Table 3, 1 h, average) was 0.05239%. The “% released from PEG alkynoate-TREN gels” value (Table 3, 1 h, replicate A) was −0.203%, the “% released from PEG alkynoate-TREN gels” value (Table 3, 1 h, replicate B) was 0.5632% and the “% released from PEG alkynoate-TREN gels” value (Table 3, 1 h, replicate C) was −0.203%. The “% released from PEG alkynoate-TREN gels” value (Table 3, 2 h, average) was 0.2685%, the “% released from PEG alkynoate-TREN gels” value (Table 3, 2 h, replicate A) was −0.203% and the “% released from PEG alkynoate-TREN gels” value (Table 3, 2 h, replicate B) was 0.74%. For the same compound, the “% released from PEG alkynoate-TREN gels” value (Table 3, 2 h, replicate C) was 0.2685%, the “% released from PEG alkynoate-TREN gels” value (Table 3, 5 h, average) was 0.4846% and the “% released from PEG alkynoate-TREN gels” value (Table 3, 5 h, replicate A) was 1.388%. For the same compound, the “% released from PEG alkynoate-TREN gels” value (Table 3, 5 h, replicate B) was 0.2685%, the “% released from PEG alkynoate-TREN gels” value (Table 3, 5 h, replicate C) was −0.203% and the “% released from PEG alkynoate-TREN gels” value (Table 3, 20 h, average) was 0.3569%. The “% released from PEG alkynoate-TREN gels” value (Table 3, 20 h, replicate A) was 0.8579%, the “% released from PEG alkynoate-TREN gels” value (Table 3, 20 h, replicate B) was 0.4158% and the “% released from PEG alkynoate-TREN gels” value (Table 3, 20 h, replicate C) was −0.203%. The “% released from PEG alkynoate-TREN gels” value (Table 3, 48 h, average) was 1.504%, the “% released from PEG alkynoate-TREN gels” value (Table 3, 48 h, replicate A) was 1.3129% and the “% released from PEG alkynoate-TREN gels” value (Table 3, 48 h, replicate B) was 1.337%. For the same compound, the “% released from PEG alkynoate-TREN gels” value (Table 3, 48 h, replicate C) was 1.862%, the “% released from PEG alkynoate-TREN gels” value (Table 4, 1 h, average) was 2.074% and the “% released from PEG alkynoate-TREN gels” value (Table 4, 1 h, replicate A) was 2.465%. The “% released from PEG alkynoate-TREN gels” value (Table 4, 1 h, replicate B) was 2.016%, the “% released from PEG alkynoate-TREN gels” value (Table 4, 1 h, replicate C) was 1.741% and the “% released from PEG alkynoate-TREN gels” value (Table 4, 6 h, average) was 4.82%. For the same compound, the “% released from PEG alkynoate-TREN gels” value (Table 4, 6 h, replicate A) was 6.195%, the “% released from PEG alkynoate-TREN gels” value (Table 4, 6 h, replicate B) was 4.946% and the “% released from PEG alkynoate-TREN gels” value (Table 4, 6 h, replicate C) was 3.318%. The “% released from PEG alkynoate-TREN gels” value (Table 4, 24 h, average) was 7.196%, the “% released from PEG alkynoate-TREN gels” value (Table 4, 24 h, replicate A) was 11.23% and the “% released from PEG alkynoate-TREN gels” value (Table 4, 24 h, replicate B) was 7.325%. For the same compound, the “% released from PEG alkynoate-TREN gels” value (Table 4, 24 h, replicate C) was 3.032%, the “% released from PEG alkynoate-TREN gels” value (Table 4, 96 h, average) was 12.3% and the “% released from PEG alkynoate-TREN gels” value (Table 4, 96 h, replicate A) was 8.246%. The “% released from PEG alkynoate-TREN gels” value (Table 4, 96 h, replicate B) was 9.349% and the “% released from PEG alkynoate-TREN gels” value (Table 4, 96 h, replicate C) was 19.32%.
